Literature values as cited in patent US20130096948A1, “METHODS FOR DIAGNOSIS, PROGNOSIS AND TREATMENT” (Nodality, Inc., priority 2009, published 2013).
Where two headings read alike, the source gives them in different places.

Compound | peak plasma concentration (high dose Cytarabine, 3 g/m2) [µM] | peak plasma concentration (standard dose of Cytarabine, 100 mg/m2) | peak plasma concentration (Daunorubicin at 25 mg/m2) [ng/mL] | peak plasma concentration (Daunorubicin at 50 mg/m2) [ng/mL]
Nc1ccn([C@@H]2O[C@H](CO)[C@@H](O)[C@@H]2O)c(=O)n1 [Cytarabine] | 2 | approximately 40 nM | – | –
COc1cccc2c1C(=O)c1c(O)c3c(c(O)c1C2=O)C[C@@](O)(C(C)=O)C[C@@H]3O[C@H]1C[C@H](N)[C@H](O)[C@H](C)O1 [Daunorubicin] | – | – | 50 | 200
